Measurements: patent US20120115806A1 (SANOFI, priority 2009, published 2012)

Experiments:
[1] = test system: patients with metastatic breast cancer; experiment: Phase I/II study: tolerance and treatment characteristics
Protocol: Part 2: the antitumor activity and the characterization of the tolerance profile were determined at the recommended dose.
The capecitabine is administered orally twice a day, in the morning and evening, from day D1 to day D14 (from the 1st to the 14th day of the cycle).
The doses could be reduced and the treatment cycle duration could be extended in the case of a severe adverse event (AE). The treatment was continued until disease progression, the presence of an unacceptable AE or the withdrawal of patient consent.
A physical examination, complete differential leukocyte and blood counts, and blood chemistry analyses were carried out before the recruitment of the patients and regularly during treatment. Tumor evaluation by radiology was carried out at recruitment of the patients and every 6 weeks. The responses were confirmed by 2 evaluations at least 4 weeks apart. Supplementary data were collected every 6 weeks until the date the study was stopped.

[2] = test system: Thymidine Phosphorylase (TP) expression in MCF-7 breast carcinoma cells; conditions: especially with MCF-7 breast carcinoma cells; abstract, French Pharmacology Society Conference 2008; cited from earlier work
[3] = test system: taxane-resistant metastatic breast cancer; conditions: 1-h i.v. infusion every 3 weeks; Ann. Oncol. 2008, 19(9), 1547-1552; cited from earlier work
[4] = Phase I/II study: pharmacokinetics and drug interaction study; conditions: patients, part 1; parent and metabolite
[5] = test system: patients with metastatic breast cancer previously treated with anthracyclines and taxanes; conditions: cabazitaxel (D1) in combination with capecitabine (twice a day, D1-14)
Description: The main inclusion criteria were an age of 18 or older, a histologically proven metastatic or locally recurrent breast cancer that was inoperable, an Eastern Cooperative Oncology Group performance status (ECOG PS) of 0 to 2, prior exposure to taxanes and to anthracyclines, and adequate hematological, renal and hepatic function.
The main exclusion criteria were a simultaneous cancer, more than one chemotherapy treatment for metastatic cancer, prior exposure to capecitabine, or uncontrolled significant comorbid conditions.
Thirty-three patients with metastatic breast cancer were included in the study, all previously treated with anthracyclines and taxanes: 15 patients for part 1 and 18 for part 2.
The dose-limiting toxicities (DLTs), i.e. the list of events to be monitored, which make it possible to guide the dose escalation, were first of all predefined in the protocol in accordance with the NCI-CTCAE classification scale, version 3.
The increase in doses was studied in groups of three patients as long as no DLT was observed.

[6] = DL2: 20 mg/m^2 cabazitaxel + 2 × 1000 mg/m^2/day capecitabine for 14 days, 21 patients
[7] = Total, all dose levels, 33 patients

Compound | Number of patients with dose reduction [1, 6] | Number of patients with dose reduction [1, 7] | induction of TP expression [2] | efficacy in taxane-resistant metastatic breast cancer [3] | pharmacokinetics affected by coadministration of the other agent [4] | maximal administered dose (MAD) [5] [mg/m^2] | recommended dose (RD) ([5]; highest dose at which less than 33% of patients exhibited a DLT) [mg/m^2]
4α-acetoxy-2α-benzoyloxy-5β,20-epoxy-1β-hydroxy-β,10β-dimethoxy-9-oxotax-11-en-13α-yl (2R,3S)-3-tert-butoxycarbonylamino-2-hydroxy-3-phenylpropionate [cabazitaxel] | 4 | 10 | induces TP expression | can be effective | do not appear to be affected |  | 
CCCCCOC(=O)Nc1nc(=O)n([C@@H]2O[C@H](C)[C@@H](O)[C@H]2O)cc1F [capecitabine, 5′-deoxy-5-fluoro-N4-(pentyloxycarbonyl)cytidine N-[1-(5-deoxy-beta-D-ribofuranosyl)-5-fluoro-2-oxo-1,2-dihydropyrimidin-4-yl]carbamic acid pentyl ester] | 3 | 7 |  |  | vice versa | 1000 | 1000
